We go through two molecules from patent US4732977A, “Carbapenem antibiotics” (priority 1986, dated 1988).

SMILES strings stand for the structures. Converted amounts (≈) assume the structure as drawn. Where two headings read alike, the source gives them in different places.

One may read the MIC as the least concentration at which growth counts as inhibited. By AUC is commonly meant the area under the concentration-time curve, a measure of exposure. Read a low AUC as low exposure. As usually defined, the Cmax is the peak of the concentration-time curve. Usually half-life stands for the time needed for the level to fall by half in the phase considered.

Data set [1] relates to S. faecalis A20688. As to the kind of experiment: M.I.C., tube dilution. The format is cell-based. The settings on record: Nutrient Broth.
For data set [2], the system named is S. pneumoniae A-9585. The experiment in a line: M.I.C., tube dilution. The format is cell-based. Particulars: overnight incubation at 37° C., Nutrient Broth.
For data set [3], the system named is P. vulgaris A21559. As to the kind of experiment: M.I.C., tube dilution. The format is cell-based. The settings on record: Nutrient Broth.
The test system of data set [4] is E. coli A20341-1. As to the kind of experiment: M.I.C., tube dilution. Particulars: Nutrient Broth. The format is cell-based.
In data set [5] the test system is S. pyogenes A-9604. The experiment in a line: M.I.C., tube dilution. Particulars: overnight incubation at 37° C., Nutrient Broth; listed as Ex. 15"C". In kind it is cell-based.
Data set [6] deals with E. coli A15119. As to the kind of experiment: M.I.C., tube dilution. In kind it is cell-based. Particulars: overnight incubation at 37° C., Nutrient Broth.
Data set [7] concerns E. cloacae A-9656. The experiment in a line: M.I.C., tube dilution. In kind it is cell-based. The settings on record: Nutrient Broth.
Data set [8] concerns S. aureus A-9537. The experiment in a line: M.I.C., tube dilution. The format is cell-based.
In data set [9] the test system is P. morganii A15153. As to the kind of experiment: M.I.C., tube dilution. In kind it is cell-based. Particulars: printed M. morganii A15153; overnight incubation at 37° C.; listed as Ex. 15"C".
The nature of data set [10]: Blood levels in mice after intramuscular administration.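 Note: compounds dissolved in 0.1 M phosphate buffer at pH 7, data from one experiment using four mice for each compound.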
Excerpt: Compounds were solubilized in 0.1 M phosphate buffer pH 7.
a single test; 4 mice used per compound.
Compounds were solubilized in 0.1 M phosphate buffer, pH 7.
on a single test; 4 mice per compound.
For data set [11], the system named is P. aeruginosa A-9843A. The experiment in a line: M.I.C., tube dilution. Particulars: overnight incubation at 37° C., Nutrient Broth; listed as Ex. 15"C". In kind it is cell-based.
In data set [12] the test system is S. marcescens A20019. As to the kind of experiment: M.I.C., tube dilution. The settings on record: overnight incubation at 37° C., Nutrient Broth. In kind it is cell-based.
Data set [13] relates to P. aeruginosa A21213. The experiment in a line: M.I.C., tube dilution. Particulars: Nutrient Broth. In kind it is cell-based.
The subject of data set [14] is K. pneumoniae A20468. As to the kind of experiment: M.I.C., tube dilution. The format is cell-based. The settings on record: Nutrient Broth.
Data set [15] deals with P. mirabilis A-9900. As to the kind of experiment: M.I.C., tube dilution. The format is cell-based. Particulars: Nutrient Broth.
The subject of data set [16] is K. pneumoniae A-9664. As to the kind of experiment: M.I.C., tube dilution. The format is cell-based. Particulars: Nutrient Broth.
Data set [17] has as its system E. cloacae A-9659. As to the kind of experiment: M.I.C., tube dilution. In kind it is cell-based. Particulars: overnight incubation at 37° C., Nutrient Broth; listed as Ex. 15"C".
Data set [18] deals with P. rettgeri A22424. The experiment in a line: M.I.C., tube dilution. In kind it is cell-based. Particulars: overnight incubation at 37° C., Nutrient Broth; listed as Ex. 15"C".
Data set [19] concerns S. aureus A-9606 (Pen-res.). The experiment in a line: M.I.C., tube dilution. The format is cell-based. Particulars: overnight incubation at 37° C.
Data set [20] in a line: Half-life (stability) in buffer solution. The format is physicochemical. The settings on record: 10^-4 M, (phosphate) buffer pH 7.4, 37° C.; read-out: half-life in solution (converted). As for the experimental part: T1/2 =9.8 h (measured at a concentration of 10^-4 M in phosphate buffer pH 7.4 at 36.8° C.).
UV (phosphate buffer, pH 7.4) λmax 294 nm (ε=8,202); T1/2 (phosphate buffer, pH 7.4, M=0.967, T=37° C.) 9.1 h.
(c of 10^-4 M in pH 7.4 phosphate buffer.
.tau.1/2 =20.8 h measured at 37° C. in buffer (pG 7.4) for a concentration of 10^-4 M.
.tau.1/2 =12.5 h measured at 37° C. in buffer pH 7.4 for a concentration of 10^-4 M.
h (measured for a concentration of 10^-4 M at 36.8° C. in buffer pH 7.4).
.tau.1/2 =26.0 h (measured for a concentration of 10^-4 M at 36.8° C. in buffer pH 7.4).
.tau.1/2 =16.6 h (measured at 36.8° C., pH 7.4 for a concentration of 10^-4 M) and (5R, 6S) 6-(1R-hydroxyethyl)7-oxo-3-[1,2,6-trimethylpyridinium-4-yl)methylthio]-1-azabicyclo[3.2.0 hept-2-ene-2-carboxylate, 0.010 g, 0.7%;
.tau.1/2 =11.6 h (measured for a concentration of 10^-4 M at 36.8° C. in buffer pH 7.4).
.tau.1/2 =13.4 h (measured for a concentration of 10^-4 M at 36.8° C. in buffer pH 7.4).
.tau.1/2 =14.4 h (measured for a concentration of 10^-4 M at 36.8° C. in buffer pH 7.4).
T 1/2: 10.2 h (biological buffer).
.tau.1/2 =10.2 h measured at 36.8° C. for a concentration of 10^-4 M in buffer pH 7.4.

[21] abbreviates: overnight incubation at 37° C., listed as Ex. 15"C".
Where [22] appears, read: mice, 20 mg/kg i.m. (table 9), 20 mg/kg.

For `C[C@@H](O)C1C(=O)N2C(C(=O)[O-])=C(SCc3cn(C)n[n+]3C)CC12` (stereo partly drawn) [Example 15 "C", 3-[4-(N,N-dimethyl-1,2,3-triazolium)methylthio]-6α-[1-(R)-hydroxyethyl]-7-oxo-1-azabicyclo(3.2.0)hept-2-ene-2-carboxylate], the minimum inhibitory concentration (MIC) in data set [1] (overnight incubation at 37° C.) amounted to 0.5 µg/mL (≈ 1.48 µM); in data set [2] it was 0.0005 µg/mL (≈ 0.00148 µM); in [3] (setting [21]) it was 0.06 µg/mL (≈ 0.177 µM); in [4] (overnight incubation at 37° C.) it was 0.03 µg/mL (≈ 0.0887 µM); in data set [5], 0.0003 µg/mL (≈ 0.000887 µM); in data set [6] (listed as Ex. 15"C"), 0.06 µg/mL (≈ 0.177 µM). Further, the MIC in data set [7] (setting [21]) came to 0.13 µg/mL (≈ 0.384 µM); in data set [8] (+50% serum, listed as Ex. 15"C"), 0.06 µg/mL (≈ 0.177 µM); in [8] (overnight incubation at 37° C., Nutrient Broth, listed as Ex. 15"C") it was 0.016 µg/mL (≈ 0.0473 µM); in data set [9], 0.25 µg/mL (≈ 0.739 µM); in data set [11] it was 8 µg/mL (≈ 23.6 µM); in [12] (listed as Ex. 15"C"), 0.13 µg/mL (≈ 0.384 µM). Besides, the minimal inhibitory concentration (MIC) in [13] (setting [21]) was found to be 0.5 µg/mL (≈ 1.48 µM); in data set [14] (setting [21]), 0.13 µg/mL (≈ 0.384 µM); in data set [15] (setting [21]), 0.06 µg/mL (≈ 0.177 µM); in data set [16] (setting [21]), 0.06 µg/mL (≈ 0.177 µM); in [17], 0.13 µg/mL (≈ 0.384 µM); in [18], 0.25 µg/mL (≈ 0.739 µM). Besides, the MIC in data set [19] is 0.03 µg/mL (≈ 0.0887 µM). This molecule also showed a T1/2 in data set [10] (mice, 20 mg/kg i.m. (table 9)) of 10 min. Moreover, in [10] (setting [22]), the AUC was found to be 7300 ng·h/mL. The molecule also had a Cmax in data set [10] (setting [22]) of 15100 ng/mL.
On to `C[C@@H](O)[C@H]1C(=O)N2C(C(=O)[O-])=C(SCc3n[n+](C)nn3C)C[C@H]12` [Example 20, (1'R,5R,6S) 3-[(1,3-dimethyl-5-tetrazolium)-methylthio]-6-(1-hydroxyethyl)-7-oxo-1-azabicyclo[3.2.0]hept-2-ene-2-carboxylate], for which the minimum inhibitory concentration (MIC) is 16 µg/mL (≈ 47.1 µM) in data set [1] (Enterococcus faecalis, A20688, overnight incubation at 37° C., read-out: MIC); 4 µg/mL (≈ 11.8 µM) in data set [3] (Proteus vulgaris, A21559, overnight incubation at 37° C., read-out: MIC); 2 µg/mL (≈ 5.89 µM) in data set [4] (Escherichia coli, A203411, overnight incubation at 37° C., read-out: MIC); 1 µg/mL (≈ 2.95 µM) in data set [6] (Escherichia coli, A15119, read-out: MIC); 16 µg/mL (≈ 47.1 µM) in data set [7] (Enterobacter cloacae, A9656, overnight incubation at 37° C., read-out: MIC); 0.5 µg/mL (≈ 1.47 µM) in data set [8] (Staphylococcus aureus, A9537, overnight incubation at 37° C., Nutrient Broth, read-out: MIC). In addition, the MIC was 4 µg/mL (≈ 11.8 µM) in data set [12] (Serratia marcescens, A20019, read-out: MIC); 16 µg/mL (≈ 47.1 µM) in data set [13] (Pseudomonas aeruginosa, A21213, overnight incubation at 37° C., read-out: MIC); 4 µg/mL (≈ 11.8 µM) in data set [14] (Klebsiella pneumoniae, A20468, overnight incubation at 37° C., read-out: MIC); 4 µg/mL (≈ 11.8 µM) in [15] (Proteus mirabilis, A9900, overnight incubation at 37° C., read-out: MIC); 4 µg/mL (≈ 11.8 µM) in data set [16] (Klebsiella pneumoniae, A9664, overnight incubation at 37° C., read-out: MIC). The exposure (AUC) in data set [10] (mouse, blood, im, 20 mg/kg) was 15600 ng·h/mL. In data set [10] (mouse, blood, im, 20 mg/kg), this molecule displayed a maximum concentration (Cmax) of 28400 ng/mL. In data set [10] (mouse, blood, im, 20 mg/kg), this molecule registered a half-life of 14 min. Moreover, the half-life at 100 µM in data set [20] was 630 min.
